This note sets out measurements from ChEMBL document CHEMBL6109094, “Anti-inflammatory agents design via the fragment hybrid strategy in the discovery of compound c1 for treating ALI and UC” (Eur J Med Chem, 2025).

Broadly, the IC50 is the midpoint of a concentration-inhibition curve. A high value points to a need for much substance. As a reminder, the inhibition is how much of the control response was suppressed.

Activity calls are given as the source filed them. The calls are words filed in the database; no cut-off is given here.

One experiment addresses T1, Tyrosine-protein kinase JAK3 (Homo sapiens, UniProt P52333).
T1 sequence (P52333 whole entry): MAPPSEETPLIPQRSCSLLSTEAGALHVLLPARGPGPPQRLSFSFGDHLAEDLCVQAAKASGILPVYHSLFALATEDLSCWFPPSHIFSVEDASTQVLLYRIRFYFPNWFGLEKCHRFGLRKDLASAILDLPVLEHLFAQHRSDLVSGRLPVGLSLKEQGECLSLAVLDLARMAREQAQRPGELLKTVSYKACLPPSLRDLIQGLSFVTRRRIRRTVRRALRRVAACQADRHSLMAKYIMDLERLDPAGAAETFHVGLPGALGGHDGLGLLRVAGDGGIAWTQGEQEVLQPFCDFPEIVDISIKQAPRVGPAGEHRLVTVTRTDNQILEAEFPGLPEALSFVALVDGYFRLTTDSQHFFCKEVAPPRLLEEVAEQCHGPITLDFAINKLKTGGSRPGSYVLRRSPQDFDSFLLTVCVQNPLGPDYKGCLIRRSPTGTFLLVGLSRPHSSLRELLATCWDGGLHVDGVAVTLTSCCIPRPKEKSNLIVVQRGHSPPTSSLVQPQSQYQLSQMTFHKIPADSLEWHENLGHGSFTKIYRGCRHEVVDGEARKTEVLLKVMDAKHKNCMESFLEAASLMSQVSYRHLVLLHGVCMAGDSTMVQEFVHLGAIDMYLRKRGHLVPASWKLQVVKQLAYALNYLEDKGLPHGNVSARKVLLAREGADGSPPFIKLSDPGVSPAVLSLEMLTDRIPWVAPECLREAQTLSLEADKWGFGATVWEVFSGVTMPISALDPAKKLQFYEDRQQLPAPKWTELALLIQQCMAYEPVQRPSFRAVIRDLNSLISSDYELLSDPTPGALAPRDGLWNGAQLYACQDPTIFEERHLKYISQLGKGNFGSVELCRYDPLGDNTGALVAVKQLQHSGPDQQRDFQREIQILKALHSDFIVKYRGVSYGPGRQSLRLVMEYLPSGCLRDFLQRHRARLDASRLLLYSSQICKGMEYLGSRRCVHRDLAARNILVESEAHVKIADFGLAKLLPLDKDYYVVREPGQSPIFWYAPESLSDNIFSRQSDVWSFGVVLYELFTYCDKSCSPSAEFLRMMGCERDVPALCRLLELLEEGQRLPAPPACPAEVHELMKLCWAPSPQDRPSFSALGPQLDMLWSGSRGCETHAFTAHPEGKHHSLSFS
The experiment is described as follows: Inhibition of JAK3 (unknown origin).
Settings: not given
With `COc1cc2ncnc(Nc3cc(Br)c(O)c(Br)c3)c2cc1OC`, the half-maximal inhibitory concentration (IC50) came out at 2500 nM. This lies in the single-digit micromolar range.

The test system of a further experiment is RAW264.7. Nature of the experiment: Anti-inflammatory activity in mouse RAW264.7 cells assessed as inhibition of LPS-induced IL-6 level at 10 uM preincubated for 30 mins followed by LPS addition measured after 24 hrs by ELISA relative to control. It counts as functional. The note with it: time 24.5 hrs. (In general: An ELISA detects its analyte on a solid surface through an enzyme-linked reagent.)
Consider `CC(C)(C)OC(=O)N1CCN(CCN[C@H]2CC[C@@H](Oc3ncnc4cc(Cl)ccc34)CC2)CC1`, for which the inhibition at 10 µM is 68.7%.

As to `COc1cc2ncnc(O[C@H]3CC[C@@H](NCCN4CCN(C(C)=O)CC4)CC3)c2cc1O`, the inhibition at 10 µM was 66.1%.

For the molecule `COc1cc2ncnc(O[C@H]3CC[C@@H](NC(=O)CN4CCNCC4)CC3)c2cc1O`, the inhibition at 10 µM was found to be 37.1%.

Take `COc1cc2ncnc(O[C@H]3CC[C@@H](NCCN4CCNCC4)CC3)c2cc1OC`: the inhibition entry was “inactive”.

With `COc1cc2ncnc(O[C@H]3CC[C@@H](NCC4CCCNC4)CC3)c2cc1O` (some centres not stated), the inhibition entry is “inactive”.

As for `COc1cc2ncnc(O[C@H]3CC[C@@H](NC(=O)CCN4CCNCC4)CC3)c2cc1O`, the inhibition at 10 µM amounted to 9.85%.

Consider `COc1cc2ncnc(O[C@H]3CC[C@@H](NCCN4CCNCC4)CC3)c2cc1OCc1ccccc1`, for which the inhibition at 10 µM came out at 62.7%.

Take `COc1cc2ncnc(O[C@H]3CC[C@@H](NCCN4CCN(C(=O)OC(C)(C)C)CC4)CC3)c2cc1OCc1ccccc1`: the inhibition at 10 µM was 58.1%.

Regarding `Clc1ccc2c(O[C@H]3CC[C@@H](NCCN4CCNCC4)CC3)ncnc2c1`, the inhibition at 10 µM came to 58.9%.

For the molecule `COc1cc2c(O[C@H]3CC[C@@H](NCCN4CCN(C(=O)OC(C)(C)C)CC4)CC3)ncnc2cc1O`, the inhibition at 10 µM was 53.6%.

With `COc1cc2c(O[C@H]3CC[C@@H](N)CC3)ncnc2cc1OCc1ccc(Br)cc1`, the inhibition result was “inactive”.

`COc1cc2c(O[C@H]3CC[C@@H](N)CC3)ncnc2cc1OCc1ccc(C)cc1`: the inhibition at 10 µM was found to be 87.2%.

`COc1cc2ncnc(O[C@H]3CC[C@@H](NCCN4CCN(C(=O)OC(C)(C)C)CC4)CC3)c2cc1O`: the inhibition at 10 µM turned out to be 59.4%.

For the molecule `COc1cc2c(O[C@H]3CC[C@@H](N)CC3)ncnc2cc1OCc1cccc(C)c1`, the inhibition at 10 µM turned out to be 89.5%.

In the case of `COc1cc2ncnc(O[C@H]3CC[C@@H](NC(=O)CN4CCN(C(=O)OC(C)(C)C)CC4)CC3)c2cc1O`, the inhibition at 10 µM worked out at 11.8%.

For `COc1cc2ncnc(O[C@H]3CC[C@@H](NCCN4CCNCC4)CC3)c2cc1O`, the inhibition at 10 µM is 46.5%.

With `COc1cc2c(O[C@H]3CC[C@@H](NCCN4CCN(C(=O)OC(C)(C)C)CC4)CC3)ncnc2cc1OCc1ccccc1`, the inhibition entry was “inactive”.

In the case of `COc1cc2c(O[C@H]3CC[C@@H](N)CC3)ncnc2cc1OCc1ccccc1Br`, the inhibition at 10 µM turned out to be 33.2%.

`COc1cc2c(O[C@H]3CC[C@@H](N)CC3)ncnc2cc1OCc1cccc([N+](=O)[O-])c1`: the inhibition at 10 µM came out at 75.2%.

For the molecule `COc1cc2c(O[C@H]3CC[C@@H](N)CC3)ncnc2cc1OCc1ccc([N+](=O)[O-])cc1`, the inhibition at 10 µM worked out at 86.6%.

As for `COc1cc2ncnc(O[C@H]3CC[C@@H](NCCN4CCN(C(=O)OC(C)(C)C)CC4)CC3)c2cc1OC`, the inhibition at 10 µM is 10.8%.

With `COc1cc2ncnc(O[C@H]3CC[C@@H](NCC4CCCN(C(=O)OC(C)(C)C)C4)CC3)c2cc1O` (some centres not stated), the inhibition at 10 µM came out at 68.7%.

`COc1cc2c(O[C@H]3CC[C@@H](NCCN4CCNCC4)CC3)ncnc2cc1O`: the inhibition at 10 µM amounted to 58.4%.

`COc1cc2ncnc(O[C@H]3CC[C@@H](NC(=O)CCN4CCN(C(=O)OC(C)(C)C)CC4)CC3)c2cc1O`: the inhibition at 10 µM turned out to be 17.5%.

`COc1cc2c(O[C@H]3CC[C@@H](N)CC3)ncnc2cc1OCc1ccccc1[N+](=O)[O-]`: the inhibition at 10 µM was 30.6%.

With `COc1cc2c(O[C@H]3CC[C@@H](NCCN4CCNCC4)CC3)ncnc2cc1OCc1ccccc1`, the inhibition at 10 µM was 74.2%.

In the case of `COc1cc2ncnc(O[C@H]3CC[C@@H](NCCCN4CCN(C)CC4)CC3)c2cc1O`, the inhibition at 10 µM came to 4.51%.

Another experiment relates to RAW264.7. Nature of the experiment: cells. Conditions: Mus musculus.
Description: Anti-inflammatory activity in mouse RAW264.7 cells assessed as inhibition of LPS-induced IL-6 level preincubated for 30 mins followed by LPS addition measured after 24 hrs by ELISA
On to `COc1cc2c(O[C@H]3CC[C@@H](N)CC3)ncnc2cc1OCc1ccc(C)cc1`, for which the 50% inhibitory concentration (IC50) was 1590 nM.

Molecule `COc1cc2c(O[C@H]3CC[C@@H](N)CC3)ncnc2cc1OCc1cccc(C)c1` returned a half-inhibitory concentration (IC50) of 600 nM.

In turn, `COc1cc2c(O[C@H]3CC[C@@H](N)CC3)ncnc2cc1OCc1ccc([N+](=O)[O-])cc1` had an IC50 of 650 nM.

`COc1cc2c(O[C@H]3CC[C@@H](NCCN4CCNCC4)CC3)ncnc2cc1OCc1ccccc1`: the half-inhibitory concentration (IC50) was 3550 nM. Against the preceding molecule, the IC50 is about 5.5-fold higher.
